The text below walks through data of EP4793277A1, “CARBOXYLIC ACID COMPOUND AND PREPARATION METHOD THEREFOR AND USE THEREOF” (Nutshell Therapeutics (Shanghai) Co., Ltd., priority 2023, dated 2025).

Molecules are shown by their SMILES. Where two headings read alike, the source gives them in different places. Bounds are passed on as bounds.

One series deals with T1, p53 Y220C mutant (Homo sapiens, UniProt P04637, Y220C).
T1 construct: Recombinant His-tagged p53 Y220C (94-312) used for HTRF assays was expressed in E. coli; made in house; host or cells: E. coli
The series is described as follows: HTRF assay: compounds promoting the binding of p53 Y220C mutant with DNA. It is filed as biochemical. Conditions: HTRF/FRET; His-tagged p53 Y220C (94-312) with biotin-labeled DNA; incubated overnight. The method, then:
Homogeneous time-resolved fluorescence (HTRF) assay was used to measure the reactivation effect of compounds on the p53 Y220C mutant. Recombinant His-tagged p53 Y220C (94-312) used for HTRF assays was expressed in E. coli and purified to 90% purity using a Ni-NTA column. The biotin-labeled DNA used for HTRF assays was synthesized by Pharmaron Inc, with the specific sequence of 5'-[…]-3'.
The binding of recombinant His-tagged p53 Y220C protein with biotin-labeled DNA was measured using fluorescence resonance energy transfer (FRET). For FRET assays, the binding between the p53 mutant and the DNA sequences was measured by detecting the fluorescence of the interaction between Eu-conjugated anti-His antibody (Cisbio, 61HI2KLA) and d2-conjugated streptavidin (Cisbio, 610SADLF) bound to a biotin-labeled DNA molecule. Compounds were prepared as 2 mM stock solutions and serially diluted 1:3 in DMSO to obtain 10 concentrations. Each compound at 200× working concentration was sequentially diluted to 4× working concentration. 4 µL of compound solution was transferred row-by-row to a 384-well assay plate using Echo, with 2 replicates per column. Subsequently, 4 µL of p53 solution was added to the assay plate, followed by 4 µL of biotinylated DNA solution, and then 4 µL of assay solution (His-Eu antibody and streptavidin-d2) was added to each well. The assay plate was incubated overnight in the dark. Fluorescence was read on a BMG microplate reader (BMG LABTECH).
The ratio for each well was calculated (ratio_665 nm/615 nm - ratio_background). The activity (%) was calculated as follows: C = (Ave_Ac−Ave_Ba)/(Ave_Dc−Ave_Bd) [formula] R data = (A−Ave_Ba−C×D)/(D−Ave_Bd) × (Ave_Dc−Ave_Bd) [formula] Activity (%) = R data/Ave_VC × 100. [formula] • A: fluorescence intensity of the sample at 665 nm; • D: fluorescence intensity of the sample at 615 nm; • Ba: fluorescence intensity of the plate background at 665 nm; • Bd: fluorescence intensity of the plate background at 615 nm; • Dc: fluorescence intensity of HIS-Eu background at 615 nm; • Ac: fluorescence intensity of streptavidin-d2 background at 665 nm; • VC: DMSO treatment group.
SC150 was calculated using GraphPad 8.0 to fit the logarithm of activity (%) versus compound concentration to a nonlinear regression (dose response-variable slope). Table 1: Activity of compounds promoting the binding of p53 Y220C mutant with DNA

The subject of the next series is NUGC-3 cells. Kind of series: Anti-proliferation effect on NUGC-3 cells (Cell Counting Kit-8). The settings on record: Homo sapiens, NUGC-3, 120 h, 5 days of treatment. It counts as cell-based. The method, then:
Cell line NUGC-3 (JCRB, JCRB0822) was cultured in RPMI 1640 medium (Invitrogen, 11875-085) supplemented with 10% (v/v) fetal bovine serum (BI, 04-002-1A), according to the standard instructions of the American Type Culture Collection. The cell line was authenticated by short tandem repeat profiling.
In the proliferation assay, 1000 NUGC-3 cells were seeded in a 96-well flat clear bottom, TC-treated plate (Corning, 3903) in 200 µL of medium per well, and allowed to recover overnight in culture medium. Compounds were added with increasing concentration, with DMSO treatment serving as a […]. After 5 days of treatment, the plate was equilibrated to room temperature for 30 minutes, and the number of living cells was measured by the addition of the Cell Counting Kit-8 reagent (MCE, HY-K0301). Absorbance was measured on an EnSpire microplate reader (PerkinElmer). The relative viability of each group was presented as the percentage change relative to the […] group and then fit to a four-parameter logit non-linear curve using the program XLFit (IDBS). Table 2: Anti-proliferation activity of compounds on NUGC-3 cells
A general note: Tetrazolium dyes change colour on reduction, which living cells bring about.

In the next series the target is T2, CYP1A2 (Homo sapiens, UniProt P05177).
T2 construct: from tissue; host or cells: liver microsomes
T2 sequence (P05177 1-516): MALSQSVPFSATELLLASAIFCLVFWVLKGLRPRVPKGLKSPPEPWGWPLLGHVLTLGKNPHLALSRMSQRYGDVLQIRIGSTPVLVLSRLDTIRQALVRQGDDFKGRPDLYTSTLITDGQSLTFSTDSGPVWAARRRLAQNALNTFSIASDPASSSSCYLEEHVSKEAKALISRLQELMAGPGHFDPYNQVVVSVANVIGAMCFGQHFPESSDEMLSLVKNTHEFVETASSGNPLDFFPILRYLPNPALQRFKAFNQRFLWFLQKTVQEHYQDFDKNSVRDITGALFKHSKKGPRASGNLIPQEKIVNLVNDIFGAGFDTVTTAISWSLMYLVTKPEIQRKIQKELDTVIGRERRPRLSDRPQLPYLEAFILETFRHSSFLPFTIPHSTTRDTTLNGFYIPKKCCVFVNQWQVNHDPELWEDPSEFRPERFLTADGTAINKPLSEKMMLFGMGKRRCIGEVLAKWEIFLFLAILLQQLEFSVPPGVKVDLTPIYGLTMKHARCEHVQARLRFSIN
Kind of series: Inhibitory activity on CYP isoenzymes at a single concentration (liver microsomes). It counts as in vitro ADME. The settings on record: pH 7.4, probe phenacetin, Final compound concentration: 10 µM, substrate Phenacetin, read-out: Inhibition rate (%) CYP1A2. The method, then:
(§1) • 1. […] Experimental instrument and reagents: [table] […] The mixture was added with HCl to adjust the pH to 7.4 and brought to a final volume of 1000 mL with water. […] [table] [table] Liver microsomes were thawed in a water bath at 37°C prior to use. […] A 5 mM NADPH working solution was prepared in phosphate-buffered saline. […] 300 µL of the supernatant was aliquoted for further LC-MS/MS analysis. […] Table 3: Inhibitory activity of compounds on CYP isoenzymes*
A general note: Liver microsomes are vesicles of endoplasmic reticulum, rich in cytochrome P450 enzymes.

In another series the target is T3, CYP2C19 (Homo sapiens, UniProt P33261).
T3 construct: Liver microsomes were thawed in a water bath at 37°C prior to use; from tissue; host or cells: liver microsomes
T3 sequence (P33261 whole entry): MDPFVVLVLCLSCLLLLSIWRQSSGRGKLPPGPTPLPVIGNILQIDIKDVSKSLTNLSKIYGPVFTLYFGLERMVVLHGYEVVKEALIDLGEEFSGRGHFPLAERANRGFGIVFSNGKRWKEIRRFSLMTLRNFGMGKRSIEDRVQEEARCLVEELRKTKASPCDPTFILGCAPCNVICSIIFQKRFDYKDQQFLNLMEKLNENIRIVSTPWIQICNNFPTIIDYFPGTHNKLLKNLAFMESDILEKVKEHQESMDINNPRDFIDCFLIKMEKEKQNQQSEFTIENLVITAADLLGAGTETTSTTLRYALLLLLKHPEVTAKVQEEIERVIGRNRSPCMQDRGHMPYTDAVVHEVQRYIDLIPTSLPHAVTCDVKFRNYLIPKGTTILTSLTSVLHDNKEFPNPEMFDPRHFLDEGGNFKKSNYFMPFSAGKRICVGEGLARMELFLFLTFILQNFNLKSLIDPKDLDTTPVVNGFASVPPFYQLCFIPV
The description is as above. Conditions: pH 7.4, probe mephenytoin, Final compound concentration: 10 µM, substrate Mephenytoin, read-out: Inhibition rate (%) CYP2C19. It counts as in vitro ADME. The method, then: as §1

Another series has as its target T4, CYP2C9 (Homo sapiens, UniProt P11712).
T4 construct: Liver microsomes were thawed in a water bath at 37°C prior to use; from tissue; host or cells: liver microsomes
Described as above. It counts as in vitro ADME. The settings on record: pH 7.4, probe diclofenac, Final compound concentration: 10 µM, substrate Diclofenac, read-out: Inhibition rate (%) CYP2C9. The method, then: as §1

The next series deals with T5, CYP2D6 (Homo sapiens, UniProt P10635).
T5 construct: Liver microsomes were thawed in a water bath at 37°C prior to use; from tissue; host or cells: liver microsomes
T5 sequence (P10635 whole entry): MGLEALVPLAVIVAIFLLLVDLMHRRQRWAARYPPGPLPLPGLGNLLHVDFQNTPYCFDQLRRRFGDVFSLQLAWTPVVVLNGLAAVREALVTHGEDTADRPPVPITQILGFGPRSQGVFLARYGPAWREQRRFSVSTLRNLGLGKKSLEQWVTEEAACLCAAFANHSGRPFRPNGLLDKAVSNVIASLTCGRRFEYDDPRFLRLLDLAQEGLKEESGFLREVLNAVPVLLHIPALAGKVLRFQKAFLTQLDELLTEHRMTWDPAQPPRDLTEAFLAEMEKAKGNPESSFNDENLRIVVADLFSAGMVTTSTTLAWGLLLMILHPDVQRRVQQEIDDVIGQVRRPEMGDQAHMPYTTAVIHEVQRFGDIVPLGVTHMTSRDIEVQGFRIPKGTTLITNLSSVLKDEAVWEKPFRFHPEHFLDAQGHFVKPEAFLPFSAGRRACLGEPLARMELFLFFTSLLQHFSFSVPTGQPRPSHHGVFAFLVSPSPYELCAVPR
Described as above. It counts as in vitro ADME. Conditions: pH 7.4, probe dextromethorphan, Final compound concentration: 10 µM, substrate Dextromethorphan, read-out: Inhibition rate (%) CYP2D6. The method, then:
as §1

The test system of series [1] is CYP3A4/5. The description is as above. It counts as in vitro ADME. The settings on record: Final compound concentration: 10 µM, human liver microsomes. On the procedure:
• 1. […] Experimental instrument and reagents:
(§2) The mixture was added with HCl to adjust the pH to 7.4 and brought to a final volume of 1000 mL with water.
Liver microsomes were thawed in a water bath at 37°C prior to use. […] A 5 mM NADPH working solution was prepared in phosphate-buffered saline.
(§3) 300 µL of the supernatant was aliquoted for further LC-MS/MS analysis.
Table 3: Inhibitory activity of compounds on CYP isoenzymes*

For series [2], the system named is CYP3A4/5. Kind of series: Multi-concentration inhibitory activity curve of CYP3A4/5 enzymes (liver microsomes). The settings on record: human liver microsomes. It is filed as in vitro ADME. The method, then: • 1. Experimental purpose: To determine the concentration inhibitory activity curve of compounds on CYP3A4/5 enzymes. • 2. Experimental instrument and materials:
as §2
Liver microsomes were thawed in a water bath at 37°C prior to use. […] A 5 mM NADPH working solution was prepared in phosphate-buffered saline. […] The above stock solution was diluted with acetonitrile (4-fold dilution, 6 non-zero concentrations).
as §3
The half-maximal inhibitory concentration (IC50) was calculated using Graph Pad Prism. Table 3: Inhibitory activity of compounds on CYP3A4/5 enzymes

For another series, the target named is T6, hERG potassium channel (Homo sapiens, UniProt Q12809).
T6 construct: host or cells: HEK293
T6 sequence (Q12809 whole entry): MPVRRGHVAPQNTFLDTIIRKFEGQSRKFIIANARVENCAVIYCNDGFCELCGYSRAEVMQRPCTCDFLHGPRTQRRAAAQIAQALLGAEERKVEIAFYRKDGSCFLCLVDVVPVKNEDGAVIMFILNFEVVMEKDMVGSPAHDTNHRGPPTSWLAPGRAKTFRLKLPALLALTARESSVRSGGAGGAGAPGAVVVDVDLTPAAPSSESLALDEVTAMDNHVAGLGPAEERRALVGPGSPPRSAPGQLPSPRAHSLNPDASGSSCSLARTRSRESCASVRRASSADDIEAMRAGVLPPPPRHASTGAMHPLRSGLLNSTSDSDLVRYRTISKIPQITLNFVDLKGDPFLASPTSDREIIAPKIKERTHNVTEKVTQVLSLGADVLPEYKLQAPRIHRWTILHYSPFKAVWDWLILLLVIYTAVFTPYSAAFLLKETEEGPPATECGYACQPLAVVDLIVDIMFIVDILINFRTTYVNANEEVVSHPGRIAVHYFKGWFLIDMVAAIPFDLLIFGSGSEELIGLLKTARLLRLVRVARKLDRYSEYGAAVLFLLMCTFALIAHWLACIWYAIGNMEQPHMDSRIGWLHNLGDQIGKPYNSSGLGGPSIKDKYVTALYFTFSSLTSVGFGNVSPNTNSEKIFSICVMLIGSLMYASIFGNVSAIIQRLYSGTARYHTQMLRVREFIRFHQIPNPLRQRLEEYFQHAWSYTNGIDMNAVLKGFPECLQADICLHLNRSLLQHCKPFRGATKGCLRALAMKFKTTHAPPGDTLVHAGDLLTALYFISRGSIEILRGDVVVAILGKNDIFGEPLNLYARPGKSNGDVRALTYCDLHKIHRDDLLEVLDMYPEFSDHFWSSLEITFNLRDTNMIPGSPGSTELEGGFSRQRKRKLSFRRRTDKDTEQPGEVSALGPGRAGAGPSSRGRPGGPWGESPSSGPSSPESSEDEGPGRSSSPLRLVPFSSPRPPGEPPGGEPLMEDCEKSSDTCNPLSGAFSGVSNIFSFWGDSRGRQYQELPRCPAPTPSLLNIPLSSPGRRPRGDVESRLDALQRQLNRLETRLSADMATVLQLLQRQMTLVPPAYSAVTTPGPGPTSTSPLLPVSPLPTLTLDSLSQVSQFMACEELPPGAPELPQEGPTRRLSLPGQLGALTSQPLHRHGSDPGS
Kind of series: Manual patch-clamp test of the inhibitory activity on hERG potassium channel. It counts as cell-based. Conditions: HEK293 cell line stably expressing the hERG ion channel, five concentrations 0.37 to 30 µM, n = 2.

[3] abbreviates: pH 7.4, probe midazolam, substrate Midazolam, read-out: Inhibition rate (%) CYP3A4/5 (Midazolam).
The mark [4] stands for this setting: pH 7.4, probe testosterone, substrate Testosterone, read-out: Inhibition rate (%) CYP3A4/5 (Testosterone).
Setting [5] is: pH 7.4, probe midazolam, midazolam as substrate.
The mark [6] stands for this setting: pH 7.4, probe testosterone, testosterone as substrate.

For orientation: IC50 means the concentration that gives 50% inhibition. A higher IC50 goes with a need for much substance.

T4 sequence (P11712 whole entry): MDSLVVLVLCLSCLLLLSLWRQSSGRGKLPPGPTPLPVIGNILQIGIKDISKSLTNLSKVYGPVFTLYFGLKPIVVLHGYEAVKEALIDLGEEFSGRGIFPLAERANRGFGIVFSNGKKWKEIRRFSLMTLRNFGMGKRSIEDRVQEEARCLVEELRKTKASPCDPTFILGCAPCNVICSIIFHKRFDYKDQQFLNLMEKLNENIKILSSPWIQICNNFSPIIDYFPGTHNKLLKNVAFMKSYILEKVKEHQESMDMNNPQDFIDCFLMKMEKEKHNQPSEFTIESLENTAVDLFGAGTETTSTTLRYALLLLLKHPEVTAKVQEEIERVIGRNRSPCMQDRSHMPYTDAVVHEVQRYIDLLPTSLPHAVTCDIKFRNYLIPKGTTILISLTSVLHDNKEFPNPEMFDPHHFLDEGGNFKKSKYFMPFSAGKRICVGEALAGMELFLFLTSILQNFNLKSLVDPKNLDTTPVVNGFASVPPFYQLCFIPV
Description for hERG potassium channel: This experiment was conducted to evaluate the effect of compounds in five concentrations on hERG channel current, obtaining a dose-effect curve and calculating the IC50.
Cell line and cell culture: HEK293 cell line stably expressing the hERG ion channel (Cat. No.: K1236) was purchased from Invitrogen. The cell line was cultured in medium containing 85% DMEM, 10% dialyzed fetal bovine serum, 0.1 mM non-essential amino acid solution, 100 U/mL penicillin-streptomycin solution, 25 mM HEPES, 5 µg/mL blasticidin, and 400 µg/mL geneticin. When the cell density grew to 40% to 80% of the bottom area of the culture dish, the cells were digested with trypsin and passaged three times per week. Prior to the experiment, the cells were cultured at a density of 5 × 10^5 cells per 3.5 cm culture dish, induced with 1 µg/mL doxycycline for 48 hours, followed by digestion, and seeded onto glass slides for subsequent manual patch-clamp experiments.
Solution preparation: Extracellular fluid (in mM): 132 sodium chloride, 4 potassium chloride, 3 calcium chloride, 0.5 magnesium chloride, 11.1 glucose, and 10 HEPES (pH adjusted to 7.35 with sodium hydroxide). Intracellular fluid (in mM): 10 EGTA, 10 HEPES, 10 potassium chloride, 10 sodium chloride, and 110 potassium fluoride (pH adjusted to 7.2 with potassium hydroxide). Osmolality of the solutions was controlled between 280 and 300 mOsmol/kg. The solutions were filtered and stored at 4°C prior to use.
Preparation of test compound solutions: Following the standard operating procedures, test compounds were dissolved in DMSO and prepared into a stock solution with a final concentration of 10 mM. The stock solution was serially diluted 1:3 in DMSO as the solvent to obtain three intermediate solutions with concentrations of 3.33, 1.11, and 0.37 mM. Prior to the experiment, the test compound intermediate solutions were further diluted 1:1000 with extracellular fluid to prepare a series of working solutions. […]

On to `COc1nc(C(=O)O)ccc1NCC#Cc1cc2c(N[C@@H]3CCN(C)C[C@@H]3F)cccn2c1CC(F)(F)F` [Cpd-2, 5-((3-(8-(((3S,4R)-3-Fluoro-1-methylpiperidin-4-yl)amino)-3-(2,2,2-trifluoroethyl)indolizin-2-yl)prop-2-yn-1-yl)amino)-6-methoxypicolinic acid], for which the SC150 on p53 Y220C mutant stood at 0.5 nM. For the same molecule, the IC50 was 120 nM with NUGC-3 cells and > 30000 nM on hERG potassium channel. Besides, the inhibition at 10 min, 10 µM at CYP1A2 is 1.2%; on CYP2C19 it was 1.9%; at CYP2C9 it was < 0%; at CYP2D6, 0.73%; with CYP3A4/5 [1] (setting [3]), < 0%; in the series on CYP3A4/5 [1] (setting [4]), 1.7%. Moreover, the IC50 at 10 min in the series on CYP3A4/5 [2] (setting [5]) and with CYP3A4/5 [2] (setting [6]) was > 50000 nM each time.
Turning to `CNC(=O)c1ccc(NCC#Cc2cc3c(N[C@@H]4CCN(C)C[C@@H]4F)cccc3n2CC(F)(F)F)c(OC)c1` [Cpd-A], the SC150 on p53 Y220C mutant was found to be 10 nM. Besides, the values for the IC50 with NUGC-3 cells and at hERG potassium channel were 780 nM and 19000 nM, respectively. Besides, the inhibition at 10 min, 10 µM at CYP1A2 was determined as 12%; at CYP2C19 it was 42%; on CYP2C9 it was 38%; at CYP2D6, 5.5%; in the series with CYP3A4/5 [1] (setting [3]), 83%. Further, the IC50 at 10 min with CYP3A4/5 [2] (setting [5]) was found to be 2300 nM; in the series with CYP3A4/5 [2] (setting [6]), 890 nM.
`CNC(=O)c1ccc(NCC#Cc2cc3c(N[C@@H]4CCN(C)C[C@@H]4F)cccn3c2CC(F)(F)F)c(OC)c1` [Cpd-C, 4-((3-(8-(((3S,4R)-3-Fluoro-1-methylpiperidin-4-yl)amino)-3-(2,2,2-trifluoroethyl)indolizin-2-yl)prop-2-yn-1-yl)amino)-3-methoxy-N-methylbenzamide]: on p53 Y220C mutant, the SC150 worked out at 4.6 nM. The same molecule had an IC50 with NUGC-3 cells of 230 nM. Further, the inhibition at 10 min, 10 µM on CYP1A2 turned out to be 18%; at CYP2C19, 67%; on CYP2C9, 43%; at CYP2D6, 9.5%; in the series with CYP3A4/5 [1] (setting [3]) it was 79%. In the series on CYP3A4/5 [2] (setting [5]), half-maximal inhibition (IC50 at 10 min) required 3800 nM.
As for `[2H]C([2H])([2H])Oc1nc(C(=O)O)ccc1NCC#Cc1cc2c(N[C@@H]3CCN(C)C[C@@H]3F)cccn2c1CC(F)(F)F` [Cpd-1, 5-((3-(8-(((3S,4R)-3-Fluoro-1-methylpiperidin-4-yl)amino)-3-(2,2,2-trifluoroethyl)indolizin-2-yl)prop-2-yn-1-yl)amino)-6-(methoxy-d3)picolinic acid], the SC150 on p53 Y220C mutant is given as 0.4 nM. Also, the values for the concentration for half-maximal inhibition (IC50) in the series on NUGC-3 cells and on hERG potassium channel were 100 nM and > 30000 nM, respectively. In addition, the inhibition at 10 min, 10 µM was 6.3% at CYP1A2; 5.5% on CYP2C19; < 0% on CYP2C9; 2.6% on CYP2D6; 3.4% in the series with CYP3A4/5 [1] (setting [3]); < 0% in the series on CYP3A4/5 [1] (setting [4]). The IC50 at 10 min with CYP3A4/5 [2] (setting [5]) and with CYP3A4/5 [2] (setting [6]) was > 50000 nM throughout.
At p53 Y220C mutant, `COc1cc(S(C)(=O)=O)ccc1NCC#Cc1nc2c(N[C@@H]3CCN(C)C[C@@H]3F)cccn2c1CC(F)(F)F` [Cpd-B] had an SC150 of 15 nM. Further, in the series on NUGC-3 cells, the IC50 turned out to be 360 nM. The inhibition at 10 min, 10 µM at CYP1A2 came out at 0.56%; at CYP2C19, 31%; at CYP2C9, 21%; at CYP2D6, 3.6%; with CYP3A4/5 [1] (setting [3]) it was 61%; with CYP3A4/5 [1] (setting [4]), 75%.
